# Reference: patent US9630965B2, “Fused amino pyridine as HSP90 inhibitors” (Curis, Inc., priority 2007, dated 2017)
# Key:
# HSP90 [1] = biological target: T1, HSP90 (Homo sapiens (Human), UniProt P07900); experiment: HSP90 competition binding (fluorescence polarization) assay with FITC labeled GM; details: 24 hours of incubation at 4° C.
# Text: (b) HSP90 Competition Binding (Fluorescence Polarization) Assay.
# A fluorescein isothiocyanate (FITC) labeled GM was purchase from InvivoGen (ant-fgl-1). The interaction between HSP90 and labeled GM forms the basis for the fluorescence polarization assay. A free and fast-tumbling FITC labeled GM emits random light with respect to the plane of polarization plane of excited light, resulting in a lower polarization degree (mP) value. When GM is bound to HSP90, the complex tumble slower and the emitted light is polarized, resulting in a higher mP value. […] The assay buffer contained 20 mM HEPES (pH 7.3), 50 mM KCl, 1 mM DTT, 50 mM MgCl2, 20 mM Na2MoO4, 0.01% NP40 with 0.1 mg/ml bovine gamma-globulin.
# HSP90 [2] = biological target: T1, HSP90; experiment: Hsp90 chaperone assay (refolding of heat-denatured luciferase); assay type: biochemical
# Protocol: (a) An In Vitro Assay which Determines the Ability of a Test Compound to Inhibit Hsp90 Chaperone Activity.
# The Hsp90 chaperone assay was performed to measure the ability of HSP90 protein to refold the heat-denatured luciferase protein. HSP90 was first incubated with different concentrations of test compounds in denaturation buffer (25 mM Tris, pH7.5, 8 mM MgSO4, 0.01% bovine gamma globulin and 10% glycerol) at room temperature for 30 min. Luciferase protein was added to denaturation mix and incubated at 50° C. for 8 min. The final concentration of HSP90 and luciferase in denaturation mixture were 0.375 μM and 0.125 μM respectively. A 5 μl sample of the denatured mix was diluted into 25 μl of renaturation buffer (25 mM Tris, pH7.5, 8 mM MgSO4, 0.01% bovine gamma globulin and 10% glycerol, 0.5 mM ATP, 2 mM DTT, 5 mM KCl, 0.3 μM HSP70 and 0.15 μM HSP40). The renaturation reaction was incubated at room temperature for 150 min, followed by dilution of 10 μl of the renatured sample into 90 μl of luciferin reagent (Luclite, PerkinElmer Life Science). The mixture was incubated at dark for 5 min before reading the luminescence signal on a TopCount plate reader (PerkinElmer Life Science).
SMILES,IC50 (HSP90 [1]) [nM],IC50 (HSP90 [2]) [nM]
"C#CCCCn1c(Sc2cc(OC)ccc2C(C)=O)nc2c(N)nccc21 [Compound 19, 1-(2-(4-amino-1-(pent-4-ynyl)-1H-imidazo[4,5-c]pyridin-2-ylthio)-4-methoxyphenyl)ethanone]",1000 to 10000,1000 to 10000
"C#CCCCn1c(Sc2cc(OC)ccc2Br)nc2c(N)nccc21 [Compound 13, 2-(2-bromo-5-methoxyphenylthio)-1-(pent-4-ynyl)-1H-imidazo[4,5-c]pyridin-4-amine]",1000 to 10000,1000 to 10000
"C#CCCCn1c(Sc2cc(OC)ccc2[N+](=O)[O-])nc2c(N)nccc21 [Compound 17, 2-(5-methoxy-2-nitrophenylthio)-1-(pent-4-ynyl)-1H-imidazo[4,5-c]pyridin-4-amine]",> 10000,≥ 10000
"C#CCCCn1c(Sc2cccc(OC)c2)nc2c(N)nccc21 [Compound 11, 2-(3-methoxyphenylthio)-1-(pent-4-ynyl)-1H-imidazo[4,5-c]pyridin-4-amine]",> 10000,≥ 10000
"C#CCCCn1c(Sc2cc(OC)ccc2C#N)nc2c(N)nccc21 [Compound 18, 2-(4-amino-1-(pent-4-ynyl)-1H-imidazo[4,5-c]pyridin-2-ylthio)-4-methoxybenzonitrile]",1000 to 10000,–

# Next, values leading:
IC50 (HSP90 [1]) [nM],IC50 (HSP90 [2]) [nM],SMILES
< 100,100 to 1000,"C#CCCCn1c(Sc2cc3c(cc2I)OCO3)nc2c(N)nccc21 [Compound 3, 2-(6-iodobenzo[d][1,3]dioxol-5-ylthio)-1-(pent-4-ynyl)-1H-imidazo[4,5-c]pyridin-4-amine]"
100 to 1000,100 to 1000,"C#CCCCn1c(Sc2cc3c(cc2Cl)OCO3)nc2c(N)nccc21 [Compound 2, 2-(6-chlorobenzo[d][1,3]dioxol-5-ylthio)-1-(pent-4-ynyl)-1H-imidazo[4,5-c]pyridin-4-amine]"
100 to 1000,1000 to 10000,"C#CCCCn1c(Sc2cc(OC)ccc2I)nc2c(N)nccc21 [Compound 12, 2-(2-iodo-5-methoxyphenylthio)-1-(pent-4-ynyl)-1H-imidazo[4,5-c]pyridin-4-amine]"
1000 to 10000,1000 to 10000,"C#CCCCn1c(Sc2cc(OC)ccc2Cl)nc2c(N)nccc21 [Compound 14, 2-(2-chloro-5-methoxyphenylthio)-1-(pent-4-ynyl)-1H-imidazo[4,5-c]pyridin-4-amine]"
100 to 1000,–,"C#CCCCn1c(Sc2cc3c(cc2I)OCCO3)nc2c(N)nccc21 [Compound 7, 2-(7-iodo-2,3-dihydrobenzo[b][1,4]dioxin-6-ylthio)-1-(pent-4-ynyl)-1H-imidazo[4,5-c]pyridin-4-amine]"
